Source: US9388147B2 (Receptos, Inc., priority 2009, dated 2016)

target: S1P1/EDG1 (Homo sapiens, UniProt P21453); assay: S1P1 CRE-bla CHOK1 reporter assay, inhibition of Forskolin induced cAMP; format: cell-based; conditions: agonist activity range, S1P1 CRE-bla CHOK1, 2 μM Forskolin; read-out: S1P1 ACTIVITY
Protocol: Generation of S1P1-Mediated Inhibition of cAMP Reporter Assay
A mammalian expression plasmid containing S1P1/EDG1 cloned into pcDNA3.1 was purchased from Missouri S&T cDNA Resource Centre. […] S1P1/pcDNA3.1 was transfected into the CRE-bla CHO K1 (Invitrogen) cell line, and stable single cell clones were selected using standard techniques.
S1P1 CRE-Bla CHOK1 Reporter Assay—Characterization of S1P1 Agonists
Cells were seeded into 384-well black wall/clear bottom plates at 10^4 cells/well/19.5 μl assay media (DMEM-phenol free, 0.5% charcoal/dextran stripped serum, 2 mM glutamine, 0.1 mM NEAA, 1 mM Na-Pyruvate, 25 mM Hepes) and incubated for 18 hrs at 37° C. in 5% CO2. Dose response curves (10-point) were generated in 10 mM Hepes, 0.1% Pluronic F127, in the presence of Forskolin. Cells were treated with 0.5 μl compound in the presence of 2 μM Forskolin for 4 hrs at 37° C. The FRET-based β-lactamase fluorescent substrate (LiveBLAzer™-FRET B/G Loading Kit CC4-AM; Invitrogen) was prepared according to manufacturer's directions, and incubated with cells for 2 hrs at room temperature. […] Data was analyzed by non-linear regression to determine the EC50 for inhibition of Forskolin induced cAMP.

Sequence of S1P1/EDG1 (P21453 whole entry): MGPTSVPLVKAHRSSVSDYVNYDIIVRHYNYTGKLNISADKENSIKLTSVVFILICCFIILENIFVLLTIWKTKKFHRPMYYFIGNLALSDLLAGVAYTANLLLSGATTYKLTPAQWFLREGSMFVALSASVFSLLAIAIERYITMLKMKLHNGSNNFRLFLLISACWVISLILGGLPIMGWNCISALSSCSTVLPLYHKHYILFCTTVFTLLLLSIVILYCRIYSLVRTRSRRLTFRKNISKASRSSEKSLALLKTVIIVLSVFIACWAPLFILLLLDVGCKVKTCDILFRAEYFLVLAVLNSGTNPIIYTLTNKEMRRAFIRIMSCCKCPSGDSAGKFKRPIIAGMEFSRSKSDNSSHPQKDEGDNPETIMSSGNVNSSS

| SMILES | EC50 [nM] |
| --- | --- |
| CC(C)Oc1ccc(-c2nc(-c3cccc4c3CCC4N3CC[C@@H](N)C3)no2)cc1C#N (mixture of isomers) [Compound 31] | > 5 |
| CC(C)Oc1ccc(-c2nc(-c3cccc4c3CC[C@H]4NC(=O)N3CCC[C@H](O)C3)no2)cc1C#N [Compound 215] | 0.5 to 5 |
| CC(C)Oc1ccc(-c2nc(-c3cccc4c3CC[C@@H]4NC(=O)N3CC[C@H](N(C)C)C3)no2)cc1C#N [Compound 245] | 0.5 to 5 |
| CC(C)Oc1ccc(-c2nc(-c3cccc4c3CC[C@@H]4NC(=O)N3CCC(N(C)C)CC3)no2)cc1C#N [Compound 247] | 0.5 to 5 |
| CCN(CC)CCNC1CCc2c(-c3noc(-c4ccc(OC(C)C)c(C#N)c4)n3)cccc21 (racemic) [Compound 28] | 0.5 to 5 |
| CC(C)Oc1ccc(-c2nc(-c3cccc4c3CC[C@H]4N3CC(O)C3)no2)cc1C#N [Compound 83, (R)-5-(3-(1-(3-hydroxyazetidin-1-yl)-2,3-dihydro-1H-inden-4-yl)-1,2,4-oxadiazol-5-yl)-2-isopropoxybenzonitrile] | 0.05 to 0.5 |
| Cc1cc(CN[C@H]2CCc3c(-c4noc(-c5ccc(OC(C)C)c(C#N)c5)n4)cccc32)[nH]n1 [Compound 162] | 0.5 to 5 |
| CCN[C@H]1CCc2c(-c3noc(-c4ccc(OC(C)C)c(C#N)c4)n3)cccc21 [Compound 107] | 0.05 to 0.5 |
| CC(C)Oc1ccc(-c2nc(-c3cccc4c3CCC4NC[C@@H](O)CO)no2)cc1C#N (mixture of isomers) [Compound 30] | 0.05 to 0.5 |
| CC(C)Oc1cc(-c2nc(-c3cccc4c3CC[C@H]4N)no2)ccc1C#N [Compound 98, (R)-4-(3-(1-amino-2,3-dihydro-1H-inden-4-yl)-1,2,4-oxadiazol-5-yl)-2-isopropoxy benzonitrile] | > 5 |
| COC(=O)N[C@@H]1CCc2c(-c3noc(-c4ccc(OC(C)C)c(C#N)c4)n3)cccc21 [Compound 149, (R)-methyl (4-(5-(3-cyano-4-isopropoxyphenyl)-1,2,4-oxadiazol-3-yl)-2,3-dihydro-1H-inden-1-yl)carbamate] | 0.05 to 0.5 |
| CC(=O)N[C@@H]1CCc2c(-c3noc(-c4ccc(OC(C)C)c(C#N)c4)n3)cccc21 [Compound 138, (R)-N-(4-(5-(3-cyano-4-isopropoxyphenyl)-1,2,4-oxadiazol-3-yl)-2,3-dihydro-1H-inden-1-yl)acetamide] | < 0.05 |
| COCCNC1CCc2c(-c3noc(-c4ccc(OC(C)C)c(C#N)c4)n3)cccc21 (stereo in doubt) [Compound 88] | 0.5 to 5 |
| CC(C)Oc1ccc(-c2nc(-c3cccc4c3CC[C@@H]4NC(=O)N3CCC(CC(=O)O)CC3)no2)cc1C#N [Compound 229] | 0.05 to 0.5 |
| COC(=O)CC1CCN(C(=O)N[C@H]2CCc3c(-c4noc(-c5ccc(OC(C)C)c(C#N)c5)n4)cccc32)CC1 [Compound 226] | 0.05 to 0.5 |
| CC(C)Oc1ccc(-c2nc(-c3cccc4c3CCC4NC[C@@H](C)O)no2)cc1C#N (mixture of isomers) [Compound 42] | 0.5 to 5 |
| CC(C)Oc1ccc(-c2nc(-c3cccc4c3CC[C@@H]4NCCF)no2)cc1C#N [Compound 142] | 0.05 to 0.5 |
| CC(C)Oc1ccc(-c2nc(-c3cccc4c3CC[C@H]4N[C@H](C)C(=O)O)no2)cc1C#N [Compound 63] | < 0.05 |
| CC(C)Oc1ccc(-c2nc(-c3cccc4c3CC[C@@H]4N3CC(C(=O)O)C3)no2)cc1C#N [Compound 203] | 0.05 to 0.5 |
| CC(C)COc1ccc(-c2nc(-c3cccc4c3CCC4NCCO)no2)cc1C#N (racemic) [Compound 103, 5-(3-(1-((2-hydroxyethyl)amino)-2,3-dihydro-1H-inden-4-yl)-1,2,4-oxadiazol-5-yl)-2-isobutoxybenzonitrile] | 0.5 to 5 |
| CC(C)Oc1ccc(-c2nc(-c3cccc4c3CCC4NS(=O)(=O)CCN(C)C)no2)cc1C#N (stereo in doubt) [Compound 77] | 0.05 to 0.5 |
| CCN(CC)C(=O)CN[C@@H]1CCc2c(-c3noc(-c4ccc(OC(C)C)c(C#N)c4)n3)cccc21 [Compound 60] | 0.5 to 5 |
| CCOc1ccc(-c2nc(-c3cccc4c3CC[C@H]4O)no2)cc1C#N [Compound 3] | 0.05 to 0.5 |
| CC(C)Oc1ccc(-c2nc(-c3cccc4c3CC[C@H]4NCC(=O)N3CCNCC3)no2)cc1C#N [Compound 131] | > 5 |
| COCCOc1ccc(-c2nc(-c3cccc4c3CCC4NCCO)no2)cc1C#N (racemic) [Compound 106] | > 5 |
| CC(C)Oc1ccc(-c2nc(-c3cccc4c3CC[C@H]4NCCC(=O)O)no2)cc1C#N [Compound 62, (R)-3-((4-(5-(3-cyano-4-isopropoxyphenyl)-1,2,4-oxadiazol-3-yl)-2,3-dihydro-1H-inden-1-yl)amino)propanoic acid] | < 0.05 |
| CC(C)Oc1ccc(-c2nc(-c3cccc4c3CCC4NCCN3CCNCC3)no2)cc1C#N (racemic) [Compound 25] | > 5 |

| SMILES | EC50 [nM] |
| --- | --- |
| CC(C)Oc1ccc(-c2nc(-c3cccc4c3CCC4NCCN3CCOCC3)no2)cc1C#N (racemic) [Compound 21] | 0.5 to 5 |
| CC(C)Oc1ccc(-c2nc(-c3cccc4c3CC[C@@H]4N(C)CCO)no2)cc1C#N [Compound 209] | 0.05 to 0.5 |
| CC(C)Oc1ccc(-c2nc(-c3cccc4c3CCC4N3CCCCC3)no2)cc1C#N (racemic) [Compound 48] | > 5 |
| CC(C)Oc1ccc(-c2nc(-c3cccc4c3CC[C@H]4OC(=O)C(C)(C)C)no2)cc1C#N [Compound 14, (R)-4-(5-(3-cyano-4-isopropoxyphenyl)-1,2,4-oxadiazol-3-yl)-2,3-dihydro-1H-inden-1-yl pivalate] | > 5 |
| CC(C)Oc1ccc(-c2nc(-c3cccc4c3CC[C@H]4NC(=O)N3CC[C@H](N)C3)no2)cc1C#N [Compound 222] | 0.5 to 5 |
| CC(C)Oc1ccc(-c2nc(-c3cccc4c3CCC4N3CCNCC3)no2)cc1C#N (racemic) [Compound 47] | 0.05 to 0.5 |
| CC(C)Oc1ccc(-c2nc(-c3cccc4c3CC[C@H]4N)no2)cc1 [Compound 96, (R)-4-(5-(4-isopropoxyphenyl)-1,2,4-oxadiazol-3-yl)-2,3-dihydro-1H-inden-1-amine] | > 5 |
| CC(C)Oc1ccc(C#N)cc1-c1nc(-c2cccc3c2CC[C@H]3N)no1 [Compound 99, (R)-3-(3-(1-amino-2,3-dihydro-1H-inden-4-yl)-1,2,4-oxadiazol-5-yl)-4-isopropoxy benzonitrile] | > 5 |
| CCS(=O)(=O)N[C@H]1CCc2c(-c3noc(-c4ccc(OC(C)C)c(C#N)c4)n3)cccc21 [Compound 73] | 0.5 to 5 |
| CC(C)Oc1ccc(-c2nc(-c3cccc4c3CC[C@H]4NC(C)C(=O)N(C)C)no2)cc1C#N (mixture of isomers) [Compound 58] | 0.5 to 5 |
| COCCN[C@H]1CCc2c(-c3noc(-c4ccc(OC(C)C)c(C#N)c4)n3)cccc21 [Compound 89] | 0.05 to 0.5 |
| CC(C)Oc1ccc(-c2nc(-c3cccc4c3CCC4N3CC[C@@H](O)C3)no2)cc1C#N (mixture of isomers) [Compound 33] | 0.5 to 5 |
| CC(C)Oc1ccc(-c2nc(-c3cccc4c3CC[C@@H]4N[C@@H](C)CO)no2)cc1C#N [Compound 53, 5-(3-((S)-1-(((S)-1-hydroxypropan-2-yl)amino)-2,3-dihydro-1H-inden-4-yl)-1,2,4-oxadiazol-5-yl)-2-isopropoxybenzonitrile] | 0.5 to 5 |
| CC(C)Oc1ccc(-c2nc(-c3cccc4c3CC[C@@H]4NC(=O)N3CCOCC3)no2)cc1C#N [Compound 212] | 0.05 to 0.5 |
| CC(C)Oc1ccc(-c2nc(-c3cccc4c3CCC4N3CC[C@H](O)C3)no2)cc1C#N (mixture of isomers) [Compound 34] | 0.5 to 5 |
| CC(C)Oc1ccc(-c2nc(-c3cccc4c3CCC4NC(C)(C)CO)no2)cc1C#N (racemic) [Compound 15] | 0.5 to 5 |
| CCN(CC(=O)N(C)C)[C@@H]1CCc2c(-c3noc(-c4ccc(OC(C)C)c(C#N)c4)n3)cccc21 [Compound 116] | 0.5 to 5 |
| CC(C)Oc1ccc(-c2nc(-c3cccc4c3CCC4NCCN3CCCCC3)no2)cc1C#N (racemic) [Compound 20] | > 5 |
| CC(C)Oc1ccc(-c2nc(-c3cccc4c3CC[C@H]4NCC(=O)N3CC3)no2)cc1C#N [Compound 127] | 0.5 to 5 |
| CN[C@@H]1CCc2c(-c3noc(-c4ccc(OC(C)C)c(C#N)c4)n3)cccc21 [Compound 143] | 0.05 to 0.5 |
| COC(=O)CCNC1CCc2c(-c3noc(-c4ccc(OC(C)C)c(C#N)c4)n3)cccc21 (racemic) [Compound 35] | 0.05 to 0.5 |
| CC(C)Oc1ccc(-c2nc(-c3cccc4c3CC[C@H]4O)no2)cc1C(F)(F)F [Compound 7] | 0.5 to 5 |
| CC(C)Oc1ccc(-c2nc(-c3cccc4c3CCC4NCCN3CCCC3)no2)cc1C#N (racemic) [Compound 26] | 0.5 to 5 |
| CNCCNC1CCc2c(-c3noc(-c4ccc(OC(C)C)c(C#N)c4)n3)cccc21 (racemic) [Compound 27] | 0.5 to 5 |
| CCOc1ccc(-c2nc(-c3cccc4c3CC[C@@H]4O)no2)cc1C#N [Compound 4] | 0.05 to 0.5 |
| CC(=O)O[C@@H]1CCc2c(-c3noc(-c4ccc(OC(C)C)c(C#N)c4)n3)cccc21 [Compound 13, (R)-4-(5-(3-cyano-4-isopropoxyphenyl)-1,2,4-oxadiazol-3-yl)-2,3-dihydro-1H-inden-1-yl acetate] | 0.5 to 5 |
| CC(C)Oc1ccc(-c2nc(-c3cccc4c3CC[C@H]4NCC(=O)N3CCC3)no2)cc1C#N [Compound 128] | 0.05 to 0.5 |
